Results: US20230058134A1, “ALDOSE REDUCTASE INHIBITORS FOR THE TREATMENT OF ACUTE RESPIRATORY DISTRESS SYNDROME, ACUTE LUNG INFLAMMATION/INJURY, CARDIAC INJURY AND ANTI-VIRAL THERAPY” (Applied Therapeutics, Inc., priority 2020, published 2023)
Entries after “also recorded” stand apart in the source; their conditions may differ.

Assays:
[1] = test system: COVID-19 with severe ARDS; test: Treatment of critical COVID-19 patients with severe ARDS under Emergency Investigational New Drug Applications; format: in vivo, human; conditions: 1500 mg twice a day
Protocol: Five critical COVID-19 patients admitted to the intensive care unit with severe ARDS were treated with Compound A (caficrestat) 1500 mg twice a day. All patients were on 100% high flow oxygen, had failed all other available treatment options, including anti-IL^6/anti-IL-17 therapy, and were at high risk of rapid progression to mechanical ventilation. The patients were treated under Emergency Investigational New Drug Applications as the last option to prevent mortality.

[2] = test system: COVID-19 with signs of ARDS and/or ALI; test: Treatment of Critical COVID-19 (single-patient example written in present tense); format: in vivo; conditions: one patient, 1500 mg oral twice a day
[3] = test system: COVID-19 infection; test: Open-label prospective phase 2 study of Compound A in high risk patients hospitalized with COVID-19, with matched registry controls; conditions: for Median LOS (95% CI): length of hospital stay, 1500 mg twice daily up to 14 days; for Estimated difference in median LOS / Estimated difference in median LOS (95% CI): Hodges-Lehmann estimate
[4] = 10 participants, 1500 mg twice daily
[5] = eight participants who survived and were discharged

Compound: O=C(O)Cc1nn(Cc2nc3cc(C(F)(F)F)ccc3s2)c(=O)c2nccnc12 [Compound A, caficrestat]
- patients recovered and discharged from the hospital ([1]; five ICU patients on 100% high flow oxygen): Four of the five
- patients who died ([1]; five ICU patients, patient had a do not resuscitate order): One patient
- signs of ARDS and/or ALI [2]: diminished
- viral burden [2]: reduced
- adverse events leading to early discontinuation of treatment [3, 4]: mild-moderate grade adverse events possibly linked to study drug in three participants
- safety laboratory monitoring during hospitalization [3, 4]: did not demonstrate any treatment-related abnormal findings
- percent mortality ([3]; 10 participants, death during index hospitalization due to COVID-19 complications): 20%
- Median LOS (95% CI) ([3]; All Subjects, N=10): 5 (4, 29)
- Estimated difference in median LOS ([3]; All Subjects, Compound A vs Match 1 control group (N=16)): 1.5
- Estimated difference in median LOS ([3]; All Subjects, Compound A vs Match 2 control group (N=60)): 14
- Median LOS (95% CI) ([3]; Surviving Subjects, N=8): 5 (4, 35)
- Estimated difference in median LOS (95% CI) ([3]; Surviving Subjects, Compound A vs Match 1 control group (N=11)): 1 (−2, 19)
- Estimated difference in median LOS (95% CI) ([3]; Surviving Subjects, Compound A vs Match 2 control group (N=43)): 9 (0, 42)
- median hospital length of stay [3, 5]: 5 days
- range of hospital length of stay [3, 5]: 3 to 35 days
- safety and tolerability ([3]; hospitalized COVID-19 patients with diabetes mellitus and hypertension, 1500 mg twice daily): generally safe and well tolerated
- participants who survived and were discharged from the hospital ([3]; of 10 treated participants): Eight of the ten treated patients survived
- progression to mechanical ventilation ([3]; ten treated patients): None of the treated patients progressed to mechanical ventilation
- mortality compared with matched control groups ([3]; vs control group 1 (31.3%) and control group 2 (28.3%), vs non-high risk population): numerically lower; also recorded: decreased to the level observed for the non-high risk population
- length of hospital stay compared with matched control groups ([3]; vs the two matched control groups): numerically less
